Experimental data reported in US11505548B2, “Heterocyclic compounds and their use for treatment of helminthic infections and diseases” (Celgene Corporation, priority 2019, dated 2022).

System: microfilariae of Dirofilaria immitis
Assay: Dirofilaria immitis, Microfilaria (DiMF) Assay
Assay type: cell-based
Details: read-out: D. immitis activity level (IC50 or MED)
Protocol: Heartworm Screen Dirofilaria immitis (D. immitis)
Dirofilaria immitis, Microfilaria (DiMF) Assay.
Compounds were dissolved and serially diluted in DMSO. Aliquots were spotted to the empty wells of assay plates. Media and microfilariae of Dirofilaria immitis were added to each well to dilute the test compounds to the desired concentrations. Assay plates were incubated for approximately 72 hours, and the larvae in each well were observed microscopically for drug effect. Microfilariae in each well were assessed subjectively for survival or paralysis, and results were reported as Minimum Effective Dose (MED).
Active and selective (DiL4 vs. DiMF potency) example compounds were subsequently evaluated in heartworm positive dog studies to correlate the in vitro selectivity profile with in vivo effects on circulating microfilariae.

**Q.** Which IC50 does the source give for `c1ccc(-c2nsc(Nc3ccc(N4CCCCC4)cn3)n2)nc1` [Cmpd 6, N-(5-(piperidin-1-yl)pyridin-2-yl)-3-(pyridin-2-yl)-1,2,4-thiadiazol-5-amine] here?
**A.** The IC50 was 500 to 5000 nM.

**Q.** Which IC50 does the source give for `CC(=O)N(C)c1cc(C(F)(F)F)cnc1Nc1nc(-c2cc3c(cn2)N(C)CC3)ns1` [Compound 249, N-methyl-N-(2-(3-(1-methyl-2,3-dihydro-1H-pyrrolo[2,3-c]pyridin-5-yl)-1,2,4-thiadiazol-5-ylamino)-5-(trifluoromethyl)pyridin-3-yl)acetamide] here?
**A.** The IC50 was less than 200 nM.

**Q.** With `CC(C)Oc1ccc(-c2nsc(Nc3ncccc3C3CC3)n2)nc1` [Compound 76, N-(3-cyclopropyl-pyridin-2-yl)-3-(5-isopropoxy-pyridin-2-yl)-1,2,4-thiadiazol-5-amine] as the compound, how does the IC50 read?
**A.** Its IC50 is less than 200 nM.

**Q.** With `CC(=O)N(C)c1cccnc1Nc1nc(-c2ccc(OC3CCN(C(C)C)CC3(F)F)cn2)ns1` (centres unmarked) [Compound 203, N-(2-(3-(5-(3,3-difluoro-1-isopropyl-piperidin-4-yloxy)pyridin-2-yl)-1,2,4-thiadiazol-5-ylamino)pyridin-3-yl)-N-methylacetamide] as the compound, how does the IC50 read?
**A.** Its IC50 is 500 to 5000 nM.

**Q.** Which IC50 does the source give for `c1ccc(-c2nsc(Nc3ccc(OC4CCOCC4)cn3)n2)nc1` [Cmpd 9, 3-(pyridin-2-yl)-N-(5-(tetrahydro-2H-pyran-4-yloxy)pyridin-2-yl)-1,2,4-thiadiazol-5-amine] here?
**A.** Its IC50 is 500 to 5000 nM.

**Q.** For `CC(C)Oc1cnc(-c2nsc(Nc3ncc(C(C)C)cc3C(F)(F)F)n2)cc1C(=O)N(C)C` [Compound 219, 5-isopropoxy-2-(5-(5-isopropyl-3-(trifluoromethyl)pyridin-2-ylamino)-1,2,4-thiadiazol-3-yl)-N,N-dimethyliso-nicotinamide], which IC50 is on record?
**A.** The IC50 was 200 to 500 nM.

**Q.** For `CN(C)c1cccnc1Nc1nc(-c2ccc(OC(F)F)cn2)ns1` [Compound 120, N2-(3-(5-(difluoromethoxy)pyridin-2-yl)-1,2,4-thiadiazol-5-yl)-N3,N3-dimethyl-pyridine-2,3-diamine], which IC50 is on record?
**A.** Its IC50 is 500 to 5000 nM.

**Q.** Which IC50 does the source give for `c1ccc(-c2ccnc(Nc3nnc(-c4ccccn4)[nH]3)c2)cc1` [Compound 241, 4-phenyl-N-(5-(pyridin-2-yl)-4H-1,2,4-triazol-3-yl) pyridin-2-amine] here?
**A.** The IC50 was 200 to 500 nM.

**Q.** For `CC(C)c1ccnc(-c2nsc(Nc3ncccc3C(F)(F)F)n2)c1` [Compound 67, 3-(4-isopropyl-pyridin-2-yl)-N-(3-(trifluoromethyl)pyridin-2-yl)-1,2,4-thiadiazol-5-amine], which IC50 is on record?
**A.** Its IC50 is less than 200 nM.

**Q.** Which IC50 does the source give for `c1ccc(-c2ccnc(Nc3nc(-c4ccccn4)ns3)c2)cc1` [Compound 237, N-(4-phenyl-pyridin-2-yl)-3-(pyridin-2-yl)-1,2,4-thiadiazol-5-amine] here?
**A.** The IC50 was 200 to 500 nM.

**Q.** For `Cc1cccnc1Nc1nc(-c2ccc(OC(C)C)cn2)no1` [Compound 20, 3-(5-isopropoxy-pyridin-2-yl)-N-(3-methyl-pyridin-2-yl)-1,2,4-oxadiazol-5-amine], which IC50 is on record?
**A.** The IC50 was 500 to 5000 nM.

**Q.** `Cc1cccnc1Nc1nc(-c2ccc(OC3CCOCC3)cn2)no1` [Compound 16, N-(3-methyl-pyridin-2-yl)-3-(5-(tetrahydro-2H-pyran-4-yloxy)pyridin-2-yl)-1,2,4-oxadiazol-5-amine] was tested. Which IC50 did it give?
**A.** Its IC50 is 500 to 5000 nM.

**Q.** `CC(=O)N(C)c1cccnc1Nc1nc(-c2cc(C(C)C)ccn2)ns1` [Compound 216, N-(2-(3-(4-iso-propylpyridin-2-yl)-1,2,4-thiadiazol-5-ylamino)pyridin-3-yl)-N-methyl-acetamide] was tested. Which IC50 did it give?
**A.** Its IC50 is 200 to 500 nM.

**Q.** How did the IC50 turn out when `CNc1cccnc1Nc1nc(-c2ccc(OC(C)C)cn2)ns1` [Compound 108, N2-(3-(5-isopropoxypyridin-2-yl)-1,2,4-thiadiazol-5-yl)-N3-methyl-pyridine-2,3-diamine] was run?
**A.** Its IC50 is 200 to 500 nM.

**Q.** For `Cc1ccnc(Nc2nnc(-c3ncccc3C)[nH]2)c1` [Compound 242, 4-methyl-N-(5-(3-methyl-pyridin-2-yl)-4H-1,2,4-triazol-3-yl)pyridin-2-amine], which IC50 is on record?
**A.** The IC50 was 200 to 500 nM.

**Q.** Which IC50 does the source give for `CC(C)Oc1cnc(-c2nsc(Nc3ncccc3C(=O)N(C)C3CC3)n2)cc1C(F)(F)F` [Compound 263, N-cyclo-propyl-2-(3-(5-isopropoxy-4-(trifluoro-methyl)pyridin-2-yl)-1,2,4-thiadiazol-5-ylamino)-N-methyl-nicotinamide] here?
**A.** The IC50 was less than 200 nM.

**Q.** For `CC(C)Oc1ccc(-c2nsc(Nc3ncccc3N(C)C)n2)nc1` [Compound 56, N2-(3-(5-isoprop-oxypyridin-2-yl)-1,2,4-thiadiazol-5-yl)-N3,N3 - dimethyl-pyridine-2,3-diamine], which IC50 is on record?
**A.** The IC50 was 200 to 500 nM.

**Q.** How did the IC50 turn out when `COc1ccc(Nc2nc(-c3ccccn3)ns2)nc1` [Cmpd 2, N-(5-methoxy-pyridin-2-yl)-3-(pyridin-2-yl)-1,2,4-thiadiazol-5-amine] was run?
**A.** The IC50 was 500 to 5000 nM.

**Q.** `CC(=O)N(C)c1cccnc1Nc1nc(-c2cc3c(cn2)N(C(C)C)CC3)ns1` [Compound 206, N-(2-(3-(1-isopropyl-2,3-dihydro-1H-pyrrolo[2,3-c]pyridin-5-yl)-1,2,4-thiadiazol-5-ylamino)pyridin-3-yl)-N-methylacetamide] was tested. Which IC50 did it give?
**A.** The IC50 was less than 200 nM.

**Q.** `Cc1cccnc1Nc1nc(-c2cc(C#N)ccn2)ns1` [Compound 40, 2-(5-(3-methyl-pyridin-2-ylamino)-1,2,4-thiadiazol-3-yl)isonicotino-nitrile] was tested. Which IC50 did it give?
**A.** The IC50 was 500 to 5000 nM.

**Q.** How did the IC50 turn out when `Cc1ccnc(-c2nsc(Nc3ncccc3F)n2)c1` [Compound 12, N-(3-fluoropyridin-2-yl)-3-(4-methylpyridin-2-yl)-1,2,4-thiadiazol-5-amine] was run?
**A.** Its IC50 is 200 to 500 nM.

**Q.** `CC(=O)N(C)c1cc(C(F)(F)F)cnc1Nc1nc(-c2ccc(OC(C)C)cn2)ns1` [Compound 247, N-(2-(3-(5-isopropoxy-pyridin-2-yl)-1,2,4-thiadiazol-5-ylamino)-5-(trifluoro-methyl)pyridin-3-yl)-N-methylacetamide] was tested. Which IC50 did it give?
**A.** The IC50 was less than 200 nM.

**Q.** With `CN(C)c1cccnc1Nc1nc(-c2ccc(OCC3CC3)cn2)ns1` [Compound 118, N2-(3-(5-(cyclopropyl-methoxy)pyridin-2-yl)-1,2,4-thiadiazol-5-yl)-N3,N3-dimethyl-pyridine-2,3-diamine] as the compound, how does the IC50 read?
**A.** The IC50 was 500 to 5000 nM.

**Q.** `CC(=O)N(C)c1cccnc1Nc1nc(-c2cc(C(C)C)c(C)cn2)ns1` [Compound 223, N-(2-(3-(4-isopropyl-5-methylpyridin-2-yl)-1,2,4-thiadiazol-5-ylamino)pyridin-3-yl)-N-methyl-acetamide] was tested. Which IC50 did it give?
**A.** Its IC50 is 200 to 500 nM.

**Q.** With `CC(=O)N(C)c1cc(C(F)(F)F)cnc1Nc1nc(-c2cc3c(cn2)N(C(C)C)CC3)ns1` [Compound 273, N-(2-(3-(1-isopropyl-2,3-dihydro-1H-pyrrolo[2,3-c]pyridin-5-yl)-1,2,4-thiadiazol-5-ylamino)-5-(trifluoromethyl)pyridin-3-yl)-N-methylacetamide] as the compound, how does the IC50 read?
**A.** Its IC50 is less than 200 nM.

**Q.** With `COc1ccc(Nc2nc(-c3cc(OC4CCCCC4)ccn3)ns2)nc1` [Compound 183, 3-(4-(cyclo-hexyloxy)pyridin-2-yl)-N-(5-methoxypyridin-2-yl)-1,2,4-thiadiazol-5-amine] as the compound, how does the IC50 read?
**A.** Its IC50 is less than 200 nM.

**Q.** `CN(C)c1cccnc1Nc1nc(-c2ccc(OC3CC3)cn2)ns1` [Compound 78, N2-(3-(5-cyclopropoxy-pyridin-2-yl)-1,2,4-thiadiazol-5-yl)-N3,N3-dimethyl-pyridine-2,3-diamine] was tested. Which IC50 did it give?
**A.** Its IC50 is 500 to 5000 nM.

**Q.** `CC(=O)N(C)c1cccnc1Nc1nc(-c2cc(C(F)(F)F)c(OC(C)C)cn2)ns1` [Compound 187, N-(2-(3-(5-isopropoxy-4-(trifluoro-methyl)pyridin-2-yl)-1,2,4-thiadiazol-5-ylamino)pyridin-3-yl)-N-methylacetamide] was tested. Which IC50 did it give?
**A.** The IC50 was 200 to 500 nM.

**Q.** Which IC50 does the source give for `Cc1cccnc1Nc1nc(-c2cc(OC(C)C)c(C(F)(F)F)cn2)ns1` [Compound 152, 3-(4-isoprop-oxy-5-(trifluoromethyl)pyridin-2-yl)-N-(3-methylpyridin-2-yl)-1,2,4-thia-diazol-5-amine] here?
**A.** The IC50 was 200 to 500 nM.

**Q.** With `CC(C)Oc1ccc(-c2nsc(Nc3ncccc3N(C)C(=O)C3CCC3)n2)nc1` [Compound 171, N-(2-(3-(5-isopropoxy-pyridin-2-yl)-1,2,4-thiadiazol-5-ylamino)pyridin-3-yl)-N-methylcyclo-butane-carboxamide] as the compound, how does the IC50 read?
**A.** Its IC50 is 500 to 5000 nM.

**Q.** `Cc1cccnc1Nc1nc(-c2cnc(OC(C)C)cn2)ns1` [Compound 124, 3-(5-isopropoxy-pyrazin-2-yl)-N-(3-methyl-pyridin-2-yl)-1,2,4-thiadiazol-5-amine] was tested. Which IC50 did it give?
**A.** Its IC50 is 500 to 5000 nM.

**Q.** With `Cc1cnc(Nc2nc(-c3cc(C(N)=O)c(OC(C)C)cn3)ns2)c(C(F)(F)F)c1` [Compound 252, 5-isopropoxy-2-(5-(5-methyl-3-(trifluoro-methyl)pyridin-2-ylamino)-1,2,4-thiadiazol-3-yl)isonico-tinamide] as the compound, how does the IC50 read?
**A.** The IC50 was 500 to 5000 nM.

**Q.** With `CC(C)Oc1cccnc1-c1nsc(Nc2cc(N3CCCC3)ccn2)n1` [Compound 94, 3-(3-isopropoxy-pyridin-2-yl)-N-(4-(pyrrolidin-1-yl)pyridin-2-yl)-1,2,4-thiadiazol-5-amine] as the compound, how does the IC50 read?
**A.** Its IC50 is 500 to 5000 nM.

**Q.** `CN1CCC(Oc2ccc(-c3nsc(Nc4ncccc4C(F)(F)F)n3)nc2)CC1` [Compound 55, 3-(5-(1-methyl-piperidin-4-yloxy)pyridin-2-yl)-N-(3-(trifluoromethyl)pyridin-2-yl)-1,2,4-thiadiazol-5-amine] was tested. Which IC50 did it give?
**A.** Its IC50 is 500 to 5000 nM.

**Q.** `CC(C)c1cnc(Nc2nc(-c3ccc(OC4CC4)cn3)ns2)cc1C(F)(F)F` [Compound 95, 3-(5-cyclopropoxy-pyridin-2-yl)-N-(5-isopropyl-4-(trifluoromethyl)pyridin-2-yl)-1,2,4-thiadiazol-5-amine] was tested. Which IC50 did it give?
**A.** The IC50 was less than 200 nM.

**Q.** How did the IC50 turn out when `COc1cnc(Nc2nc(-c3cc(C(N)=O)c(OC(C)C)cn3)ns2)c(C(F)(F)F)c1` [Compound 253, 5-isopropoxy-2-(5-(5-methoxy-3-(trifluoro-methyl)pyridin-2-ylamino)-1,2,4-thiadiazol-3-yl)isonico-tinamide] was run?
**A.** Its IC50 is 500 to 5000 nM.

**Q.** With `FC(F)(F)c1ccc(Nc2nc(-c3ccccn3)ns2)nc1` [Cmpd 1] as the compound, how does the IC50 read?
**A.** Its IC50 is less than 200 nM.

**Q.** With `CC(C)Oc1ccc(-c2nsc(Nc3ncccc3C(F)(F)F)n2)nc1` [Compound 54, 3-(5-isopropoxy-pyridin-2-yl)-N-(3-(trifluoromethyl)pyridin-2-yl)-1,2,4-thiadiazol-5-amine] as the compound, how does the IC50 read?
**A.** The IC50 was less than 200 nM.
